How the values were obtained:
KDM4A = target: T1, KDM4A (Homo sapiens, UniProt O75164); assay: LANCE Ultra antibody-based demethylase assay; format: biochemical
T1 construct: catalytic domain, residues 1-359; pQTEV N-terminal His6 tag removed by TEV protease
T1 sequence (O75164 1-359): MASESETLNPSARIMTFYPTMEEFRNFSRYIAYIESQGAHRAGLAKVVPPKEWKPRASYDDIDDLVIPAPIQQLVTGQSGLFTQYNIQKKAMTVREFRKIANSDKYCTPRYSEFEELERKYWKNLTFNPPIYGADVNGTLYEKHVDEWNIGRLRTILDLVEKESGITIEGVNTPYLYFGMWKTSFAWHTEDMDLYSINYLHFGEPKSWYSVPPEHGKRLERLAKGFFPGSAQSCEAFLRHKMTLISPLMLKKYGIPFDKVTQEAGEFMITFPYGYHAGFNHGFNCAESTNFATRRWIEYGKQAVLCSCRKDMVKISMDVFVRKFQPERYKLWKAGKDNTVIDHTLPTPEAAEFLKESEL
From the text: LANCE Ultra antibody-based demethylase assay on KDM4A

KDM4D = target: T2, KDM4D (Homo sapiens, UniProt Q6B0I6); assay: isothermal titration calorimetry; format: binding
T2 construct: catalytic core, residues 1-342 (11-342 visible in crystals); pQTEV N-terminal His6 tag removed by TEV protease; E. coli
T2 sequence (Q6B0I6 1-342): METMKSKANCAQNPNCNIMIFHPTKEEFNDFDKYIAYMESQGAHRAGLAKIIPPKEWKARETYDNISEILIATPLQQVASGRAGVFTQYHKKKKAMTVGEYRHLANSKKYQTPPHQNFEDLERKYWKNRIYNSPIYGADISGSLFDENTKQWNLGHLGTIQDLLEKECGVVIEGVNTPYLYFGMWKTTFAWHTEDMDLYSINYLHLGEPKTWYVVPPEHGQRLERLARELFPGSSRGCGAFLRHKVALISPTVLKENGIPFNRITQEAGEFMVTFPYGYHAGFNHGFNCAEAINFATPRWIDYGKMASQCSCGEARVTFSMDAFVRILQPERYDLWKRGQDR
From the text: isothermal titration calorimetry on KDM4D

## NNC(=O)c1ccc(-c2nn[nH]n2)cc1 [compound 6]
KDM4A
  IC50: 216 ± 33 µM

## NNC(=O)Cc1nnn[nH]1 [compound 1]
KDM4D
  Kd: 2.3 ± 0.9 µM

## NNC(=O)c1cccc(-c2nn[nH]n2)c1 [compound 7]
KDM4A
  IC50: 195 ± 39 µM
KDM4D
  Kd: 41 ± 15 µM

From article PMC6899576, “Structure‐Based Screening of Tetrazolylhydrazide Inhibitors versus KDM4 Histone Demethylases” (Chemmedchem, 2019)
